Reference: patent US20190127456A1, “METHODS OF TREATING IDIOPATHIC PULMONARY FIBROSIS” (FibroGen, Inc., priority 2017, published 2019)

Experiments:
[1] = tested on: radiation-induced lung fibrosis; assay: Mouse radiation-induced lung fibrosis model: lung function by blood gas analysis; type: in vivo; details: blood gas analysis at 24 weeks, compared to RT with no treatment; data not shown
Procedure: The objective of this study was to compare the activity of pamrevlumab monotherapy to either pirfenidone or nintedanib alone, and to evaluate the potential for enhanced activity of the combined agents. […] In this study, mice received thoracic irradiation (RT), followed by the therapeutic administration of the agents at 16 weeks post-irradiation when lung remodeling was evident by HRCT. After 8 weeks of drug treatment, lung density and volume were assessed by HRCT, lung function was assessed by blood gas analysis, and mice were sacrificed for histologic and gene expression analysis. C57B1/6 mice were irradiated with 14.5 Gy photons; full thorax, single dose. Treatment with therapeutic agent(s) (pamrevlumab, pirfenidone, and/or nintedanib) was initiated 16 weeks post-irradiation and continued for 8 weeks. Pamrevlumab (FG) was given IP, BIW, at 40 mg/kg; pirfenidone (PF) was given PO in chow, QD, at 300 mg/kg; nintedanib (ND) was given PO in chow, QD, at 100 mg/kg. Treatment with each agent alone, with combinations of two, and with a triple combination were carried out. Controls included non-irradiated mice, mice that were irradiated and not treated, and mice that were irradiated and given human IgG. […] The effect of the treatments on lung function was assessed by blood gas analysis (data not shown).

[2] = tested on: IPF; assay: Phase two study in IPF patients: UCSD Shortness of Breath Questionnaire (UCSD-SOBQ); type: in vivo, human; details: for mean UCSD-SOBQ score: IPF patients, n=22, FIG. 6 change from baseline
Description: A sub-set of patients in the Phase two clinical trial described above in Example 2 (pamrevlumab n=22, placebo n=20), self-administered the University of California, San Diego—Shortness of Breath Questionnaire (UCSD-SOBQ) at the start of therapy (baseline) and then every 12 weeks while enrolled in the 48 week study. The UCSD-SOBQ has been validated as an acceptable measure to assess change in dyspnea over time in IPF (Swigris et al., Respir Med. 2012 October; 106(10): 1447-1455).
The questionnaire has 24 sections that assess dyspnea associated with activities of daily living (ADLs) in different lung disorders, including IPF. Twenty-one sections relate to the severity of dyspnea experienced during different daily activities, while three sections assess the limitations due to shortness of breath, fear of harm from overexertion and fear of shortness of breath. Each question has a 6-point scale (0=“not at all” to 5=“maximal or unable to do because of breathlessness”. The total score ranges from 0 to 120, with higher scores indicating greater dyspnea.
An ANCOVA model with treatment as fixed effect and baseline UCSD-SOBQ score as covariate was applied to observed and imputed data at each visit. Missing results at post-baseline visits were mputed using the predicted values from a random coefficient model. The analysis included all subjects who had baseline and at least one post-baseline UCSD-SOBQ evaluation.

Substance: pamrevlumab
- O2 saturation [1]: normalized O2 saturation
- mean UCSD-SOBQ score ([2]; Week 12): 1.98
- mean UCSD-SOBQ score ([2]; Week 36): 3.76
- mean UCSD-SOBQ score ([2]; Week 48): 2.26
- difference in mean UCSD-SOBQ score between the two arms ([2]; pamrevlumab vs placebo, Week 48, p-value=0.0460): −13.32 points
